Type in all cases: in vivo
The test system of one data set is corn. Put plainly: Test Example 1: post-emergence foliage spray pot test in greenhouse, safety (phytotoxicity) against a useful plant. The note with it: for phytotoxicity score (0 to 100), corn: foliar spray 204 L/ha on plants grown 15 days, evaluated after 11 days, 0 = same as untreated, 100 = completely dead. Here is the method: (§1) Next, weed control efficacies of the Compound A and safety (phytotoxicity) of the Compound A against a useful plant are shown by a Test Example.
(§2) Here the “untreated group” represents a group where the same treatment procedure as that of the treated group except not using the Compound A is done.
(§3) A plastic pot was filled with soil, thereto Amaranthus retroflexus, Ipomoea hederacea, and corn were seeded, and they were grown in a greenhouse for 15 days. Separately, a prescribed amount of a formulation prepared according to the process described in the Formulation Example 1 was diluted with water comprising 1% of Agridex (registered trademark) to obtain a diluent. Said diluent was homogeneously sprayed from above of said plants in a ratio of 204 L/ha such that the applied amount of the Compound A was 80 gai/ha or 40 gai/ha. Then, said plants were grown in a greenhouse for 11 days and evaluated according to the above criteria.
(§4) The Compound B was used instead of the Compound A to carry out the same test as the Test Example 1.

The subject of a further data set is Amaranthus retroflexus. Put plainly: Test Example 1: post-emergence foliage spray pot test in greenhouse, weed control efficacy. As to conditions: for weed control efficacy score (0 to 100), Amaranthus retroflexus: foliar spray 204 L/ha on plants grown 15 days, evaluated after 11 days, 0 = same as untreated, 100 = completely dead; for weed control efficacies against Amaranthus retroflexus (in words): summary of the test at 80 and 40 gai/ha. Here is the method: as §1, §2, §3, §4

The subject of a further data set is Ipomoea hederacea. The description is as above. The note with it: for weed control efficacy score (0 to 100), Ipomoea hederacea: foliar spray 204 L/ha on plants grown 15 days, evaluated after 11 days, 0 = same as untreated, 100 = completely dead; for weed control efficacies against Ipomoea hederacea (in words): summary of the test at 80 and 40 gai/ha. As for the experimental part: as §1, §2, §3, §4

Regarding `CCOC(=O)COc1nc(-n2c(=O)cc(C(F)(F)F)n(C)c2=O)ccc1Oc1cc(-n2c(=O)cc(C(F)(F)F)n(C)c2=O)c(F)cc1Cl` [Compound A], in the data set on corn (in vivo), the “phytotoxicity against corn (in words)” value is listed as “low phytotoxicity”. In addition, the “weed control efficacy score (0 to 100), Amaranthus retroflexus” value in the data set on Amaranthus retroflexus (applied amount 40 gai/ha) and in the data set with Amaranthus retroflexus (applied amount 80 gai/ha) was 100 each time. Also, the “weed control efficacies against Amaranthus retroflexus (in words)” value with Amaranthus retroflexus is on record as “high weed control efficacies”. Further, the “weed control efficacy score (0 to 100), Ipomoea hederacea” value with Ipomoea hederacea (applied amount 40 gai/ha) amounted to 95; in the data set on Ipomoea hederacea (applied amount 80 gai/ha), 100. In addition, the “weed control efficacies against Ipomoea hederacea (in words)” value in the data set with Ipomoea hederacea is given as “high weed control efficacies”.

As for `CCOC(=O)COc1ncccc1Oc1cc(-n2c(=O)cc(C(F)(F)F)n(C)c2=O)c(F)cc1Cl` [Compound B], the “phytotoxicity score (0 to 100), corn” value in the data set on corn (applied amount 40 gai/ha) and in the data set with corn (applied amount 80 gai/ha) was 100 each time. In addition, in the data set with corn (summary of the test at 80 and 40 gai/ha), the “phytotoxicity against corn (in words)” value is on record as “high phytotoxicity”. Also, the “weed control efficacy score (0 to 100), Amaranthus retroflexus” value in the data set with Amaranthus retroflexus (applied amount 40 gai/ha) and in the data set with Amaranthus retroflexus (applied amount 80 gai/ha) was 100 throughout. In addition, the “weed control efficacies against Amaranthus retroflexus (in words)” value in the data set on Amaranthus retroflexus is recorded as “high weed control efficacies”. For the same compound, the “weed control efficacy score (0 to 100), Ipomoea hederacea” value in the data set with Ipomoea hederacea (applied amount 40 gai/ha) and in the data set on Ipomoea hederacea (applied amount 80 gai/ha) was 100 each time. For the same compound, in the data set with Ipomoea hederacea, the “weed control efficacies against Ipomoea hederacea (in words)” value is given as “high weed control efficacies”.

The values are drawn from US11896010B2, “Uracil compound and use thereof” (Sumitomo Chemical Company, Limited, priority 2018, dated 2024).
